Measured values: ChEMBL document CHEMBL2040759, “Design, synthesis and anticancer activity of nitric oxide donating/chalcone hybrids” (2012)

Columns and labels:
Format in all cases: functional
[1] = system: SF-295; experiment: Growth inhibition of human SF295 cells assessed as cell growth at 10^-5 M after 48 hrs by SRB assay; details: SF-295, 48 h, read-out: Activity
[2] = system: SNB-19; experiment: Growth inhibition of human SNB19 cells assessed as cell growth at 10^-5 M after 48 hrs by SRB assay; details: SNB-19, 48 h, read-out: Activity
[3] = system: SNB-75; experiment: Growth inhibition of human SNB75 cells assessed as cell growth at 10^-5 M after 48 hrs by SRB assay; details: SNB-75, 48 h, read-out: Activity
[4] = system: M14; experiment: Growth inhibition of human M14 cells assessed as cell growth at 10^-5 M after 48 hrs by SRB assay; details: M14, 48 h, read-out: Activity
[5] = system: MDA-MB-435; experiment: Growth inhibition of human MDA-MB-435 cells assessed as cell growth at 10^-5 M after 48 hrs by SRB assay; details: MDA-MB-435, 48 h, read-out: Activity
[6] = system: SK-MEL-2; experiment: Growth inhibition of human SK-MEL-2 cells assessed as cell growth at 10^-5 M after 48 hrs by SRB assay; details: SK-MEL-2, 48 h, read-out: Activity
[7] = system: SK-MEL-5; experiment: Growth inhibition of human SK-MEL-5 cells assessed as cell growth at 10^-5 M after 48 hrs by SRB assay; details: SK-MEL-5, 48 h, read-out: Activity
[8] = system: UACC-62; experiment: Growth inhibition of human UACC62 cells assessed as cell growth at 10^-5 M after 48 hrs by SRB assay; details: UACC-62, 48 h, read-out: Activity
[9] = system: IGROV-1; experiment: Growth inhibition of human IGROV1 cells assessed as cell growth at 10^-5 M after 48 hrs by SRB assay; details: IGROV-1, 48 h, read-out: Activity
[10] = system: OVCAR-3; experiment: Growth inhibition of human OVCAR3 cells assessed as cell growth at 10^-5 M after 48 hrs by SRB assay; details: OVCAR-3, 48 h, read-out: Activity
[11] = system: OVCAR-4; experiment: Growth inhibition of human OVCAR4 cells assessed as cell growth at 10^-5 M after 48 hrs by SRB assay; details: OVCAR-4, 48 h, read-out: Activity
[12] = system: OVCAR-8; experiment: Growth inhibition of human OVCAR8 cells assessed as cell growth at 10^-5 M after 48 hrs by SRB assay; details: OVCAR-8, 48 h, read-out: Activity
[13] = Growth inhibition of human NCI-ADR-RES cells assessed as cell growth at 10^-5 M after 48 hrs by SRB assay; details: read-out: Activity
[14] = system: A498; experiment: Growth inhibition of human A498 cells assessed as cell growth at 10^-5 M after 48 hrs by SRB assay; details: A498, 48 h, read-out: Activity
[15] = system: ACHN; experiment: Growth inhibition of human ACHN cells assessed as cell growth at 10^-5 M after 48 hrs by SRB assay; details: read-out: Activity
[16] = system: SN12C; experiment: Growth inhibition of human SN12C cells assessed as cell growth at 10^-5 M after 48 hrs by SRB assay; details: read-out: Activity
[17] = system: MDA-MB-231; experiment: Growth inhibition of human MDA-MB-231 cells assessed as cell growth at 10^-5 M after 48 hrs by SRB assay; details: MDA-MB-231, 48 h, read-out: Activity
[18] = system: BT-549; experiment: Growth inhibition of human BT549 cells assessed as cell growth at 10^-5 M after 48 hrs by SRB assay; details: BT-549, 48 h, read-out: Activity
[19] = system: T47D; experiment: Growth inhibition of human T47D cells assessed as cell growth at 10^-5 M after 48 hrs by SRB assay; details: read-out: Activity
[20] = system: CCRF-CEM; experiment: Growth inhibition of human CCRF-CEM cells after 48 hrs by SRB assay
[21] = system: K562; experiment: Growth inhibition of human K562 cells after 48 hrs by SRB assay; details: K562, 48 h
[22] = system: A549; experiment: Growth inhibition of human A549/ATCC cells after 48 hrs by SRB assay; details: A549, 48 h
[23] = system: NCI-H522; experiment: Growth inhibition of human NCI-H522 cells after 48 hrs by SRB assay; details: NCI-H522, 48 h
[24] = system: COLO 205; experiment: Growth inhibition of human COLO205 cells after 48 hrs by SRB assay; details: COLO 205, 48 h
[25] = system: SF-295; experiment: Growth inhibition of human SF295 cells after 48 hrs by SRB assay; details: SF-295, 48 h
[26] = system: SK-MEL-2; experiment: Growth inhibition of human SK-MEL-2 cells after 48 hrs by SRB assay; details: SK-MEL-2, 48 h
[27] = system: UACC-257; experiment: Growth inhibition of human UACC257 cells after 48 hrs by SRB assay; details: UACC-257, 48 h
[28] = system: OVCAR-4; experiment: Growth inhibition of human OVCAR4 cells after 48 hrs by SRB assay; details: OVCAR-4, 48 h
[29] = Growth inhibition of human NCI-ADR-RES cells after 48 hrs by SRB assay
[30] = system: 786-0; experiment: Growth inhibition of human 786-0 cells after 48 hrs by SRB assay; details: 786-0, 48 h
[31] = system: CAKI-1; experiment: Growth inhibition of human Caki1 cells after 48 hrs by SRB assay; details: CAKI-1, 48 h
[32] = system: MCF7; experiment: Growth inhibition of human MCF7 cells after 48 hrs by SRB assay; details: MCF7, 48 h
[33] = system: BT-549; experiment: Growth inhibition of human BT549 cells after 48 hrs by SRB assay; details: BT-549, 48 h
[34] = system: HL-60(TB); experiment: Growth inhibition of human HL-60(TB) cells assessed as cell growth at 10^-5 M after 48 hrs by SRB assay; details: HL-60, 48 h, read-out: Activity
[35] = system: MOLT-4; experiment: Growth inhibition of human MOLT4 cells assessed as cell growth at 10^-5 M after 48 hrs by SRB assay; details: MOLT-4, 48 h, read-out: Activity
[36] = read-out: LC50 (the source's name)

O=C(CO[N+](=O)[O-])Nc1ccc(C(=O)/C=C/c2ccc(Cl)cc2)cc1
growth at 10 µM [1]: 105%
growth at 10 µM [2]: 87.8%
growth at 10 µM [3]: 69.7%
growth at 10 µM [4]: 3.46%
growth at 10 µM [5]: -2.76%
growth at 10 µM [6]: 81.7%
growth at 10 µM [7]: 54.5%
growth at 10 µM [8]: 49.2%
growth at 10 µM [9]: -26%
growth at 10 µM [10]: 0.33%
growth at 10 µM [11]: 76.1%
growth at 10 µM [12]: 27.2%
growth at 10 µM [13]: 29.9%
growth at 10 µM [14]: 103%
growth at 10 µM [15]: 62.3%
growth at 10 µM [16]: 46.8%
growth at 10 µM [17]: 55%
growth at 10 µM [18]: 18.9%
growth at 10 µM [19]: 55.5%
GI50 [20]: 2.73 µM
TGI [20]: 16.5 µM
CC50 [20, 36]: > 100 µM
GI50 [21]: 2.6 µM
TGI [21]: > 100 µM
CC50 [21, 36]: > 100 µM
GI50 [22]: 5.71 µM
TGI [22]: 20.6 µM
CC50 [22, 36]: 57.9 µM
GI50 [23]: 2.31 µM
TGI [23]: 8.37 µM
CC50 [23, 36]: 32.8 µM
GI50 [24]: 2.57 µM
TGI [24]: 6.09 µM
CC50 [24, 36]: 21.1 µM
GI50 [25]: 5.82 µM
TGI [25]: 29.2 µM
CC50 [25, 36]: > 100 µM
GI50 [26]: 9.69 µM
TGI [26]: 23.3 µM
CC50 [26, 36]: 54.7 µM
GI50 [27]: 4.33 µM
TGI [27]: 15.9 µM
CC50 [27, 36]: 40.7 µM
GI50 [28]: 4.06 µM
TGI [28]: 21 µM
CC50 [28, 36]: 76.5 µM
GI50 [29]: 3.87 µM
TGI [29]: > 100 µM
CC50 [29, 36]: > 100 µM
GI50 [30]: 11.6 µM
TGI [30]: 48 µM
CC50 [30, 36]: > 100 µM
GI50 [31]: 11.8 µM
TGI [31]: 54.5 µM
CC50 [31, 36]: > 100 µM
GI50 [32]: 0.67 µM
TGI [32]: 6.44 µM
CC50 [32, 36]: > 100 µM
GI50 [33]: 1.86 µM
TGI [33]: 5 µM
CC50 [33, 36]: > 100 µM

O=C(CO[N+](=O)[O-])Nc1ccc(C(=O)/C=C/c2ccc3c(c2)OCO3)cc1
growth at 10 µM [1]: 74.6%
growth at 10 µM [2]: 104%
growth at 10 µM [3]: 86.3%
growth at 10 µM [4]: 81.8%
growth at 10 µM [5]: 62.6%
growth at 10 µM [6]: 119%
growth at 10 µM [7]: 90.8%
growth at 10 µM [8]: 96%
growth at 10 µM [9]: 46.3%
growth at 10 µM [10]: 80.6%
growth at 10 µM [11]: 96.1%
growth at 10 µM [12]: 75.8%
growth at 10 µM [13]: 84.5%
growth at 10 µM [14]: 107%
growth at 10 µM [15]: 99.2%
growth at 10 µM [16]: 95.4%
growth at 10 µM [17]: 87.4%
growth at 10 µM [18]: 87.6%
growth at 10 µM [19]: 83%
growth at 10 µM [34]: 73.7%
growth at 10 µM [35]: 99.7%
